Assay in all cases: Human cancer xenograft tumor model in nude mouse
Assay type in all cases: in vivo, BALB/C nude mice
A general note: A xenograft is tissue or cells of one species grown in another, often human tumour cells in immunodeficient mice.

In assay [1] the test system is human colon cancer cell strain HCT-116 xenograft. The settings on record: HCT-116 model, 21 d, intraperitoneal once a day, T/C < 60% = effective. The source says:
(§1) 5-6 week old female or male BALB/C nude mice, about 18-20 g in weight, were raised. Human cancer xenograft tumor model in nude mouse was established by the following steps: human colon cancer cell strains HCT-116 and Colo205, human breast cancer cell strain MDA-MB435, human prostate cancer cell strain BXPC-3, human ovarian cancer cell strain SKOV-3, human lung cancer cell strain A549, human pancreatic cancer cell strain PANC-1, and human uterine cancer cell strain Hela were all obtained from ATCC. Each cell strain was cultured, and monolayer of cultured tumor cells were digested off the walls, collected and resuspended in serum-free culture medium, and adjusted to a concentration of 2×10^6/0.2 mL, which was then brought to the animal room in an ice box. 0.2 mL cell suspension was drawn directly by a syringe with […] and subcutaneously transplanted into the scapula part of the rear part of nude mouse's left armpit, 2×10^6/0.2 mL for each mouse, and the tumor volume was measured every 2-3 days. After two weeks, tumor was removed under sterile conditions from tumor-bearing nude mice with vigorous tumor growth and without diabrosis. The tumor tissue was cut into pieces of about 2˜3 mm and inoculated subcutaneously into the scapula part of the rear part of nude mouse's left armpit. After three passages, when the tumor volume reached 100 mm^3, the nude mice with too large or too small tumors were eliminated and the rest were randomly divided into groups for the administration.
(§2) The mice were randomly divided into 5 groups, including negative control group (solvent), positive control group (BSI-201, 80 mg/kg), and three treatment groups with high, middle and low doses (40 mg/kg, 30 mg/kg, and 20 mg/kg respectively, wherein the high dose was below the MTD), and there were 8 nude mice in each group except that there are 16 ones in the negative control group. They were administered by intraperitoneal injection once a day for 3 consecutive weeks, during which body weight and tumor volume of the animals were detected and the death number of animals was recorded every 2 days. The animals were sacrificed 24 hours after the last administration, and the volume sizes of tumor, tumor weight, and body weight of nude mice were measured; growth curves of tumor volume, growth curves of body weight of nude mice and tumor inhibition rate, animal mortality were plotted, and relative tumor proliferation rate T/C (%) was calculated according to the equation T/C (%)=TRTV/CRTV*100%. (TRTV: RTV of the treatment group; CRTV: RTV of the negative control group, relative tumor volume RTV=Vt/V0, wherein V0 is the tumor volume when the mice were divided into groups for administration, Vt is the tumor volume after the administration).

Assay [2] has as its system human colon cancer cell strain Colo205 xenograft. The following applies: Colo-205 model, 21 d, intraperitoneal once a day, T/C < 60% = effective.
Text: as §1, §2

For assay [3], the system named is human pancreatic cancer cell strain PANC-1 xenograft. The settings on record: PANC-1 model, 21 d, intraperitoneal once a day, T/C < 60% = effective.
Text: as §1, §2

Assay [4] concerns human lung cancer cell strain A549 xenograft. The settings on record: 21 d, intraperitoneal once a day, T/C < 60% = effective.
Text: as §1, §2

For assay [5], the system named is human breast cancer cell strain MDA-MB435 xenograft. The following applies: MDA-MB-435 model, 21 d, intraperitoneal once a day, T/C < 60% = effective.
Text: as §1, §2

Assay [6] relates to human ovarian cancer cell strain SKOV-3 xenograft. The settings on record: SKOV-3 model, 21 d, intraperitoneal once a day, T/C < 60% = effective.
Text: as §1, §2

Assay [7] has as its system human uterine cancer cell strain Hela xenograft. The settings on record: 21 d, intraperitoneal once a day, T/C < 60% = effective.
Text: as §1, §2

Assay [8] has as its system human prostate cancer cell strain BXPC-3 xenograft. The settings on record: BXPC-3 model, 22 d, intraperitoneal once a day, T/C < 60% = effective.
Text: as §1, §2

For the compound `NC(=O)c1ccc(I)c([N+](=O)[O-])c1` [BSI-201, 4-iodo-3-nitrobenzamide, reference compound], the “Relative tumor proliferation rate T/C (%)” value in assay [1] (80 mg/kg) is on record as 54%(80, 21); in assay [2] (80 mg/kg), 50%(80, 21); in assay [3] (80 mg/kg), 45%(80, 21); in assay [4] (80 mg/kg) it was 42%(80, 21); in assay [5] (80 mg/kg), 44%(80, 21); in assay [6] (80 mg/kg) it was 41%(80, 21). Moreover, the “Relative tumor proliferation rate T/C (%)” value was 48%(80, 21) in assay [7] (80 mg/kg) and 48%(80, 22) in assay [8] (80 mg/kg).
As to `C#Cc1ccc(C(N)=O)cc1[N+](=O)[O-]` [Compound I-1, 4-ethynyl-3-nitrobenzamide], the “Relative tumor proliferation rate T/C (%)” value in assay [1] (30 mg/kg) was 52%(30, 21); in assay [2] (30 mg/kg), 42%(30, 21); in assay [3] (30 mg/kg), 40%(30, 21); in assay [4] (30 mg/kg), 40%(30, 21); in assay [5] (30 mg/kg) it was 40%(30, 21); in assay [6] (30 mg/kg) it was 45%(30, 21). Besides, the “Relative tumor proliferation rate T/C (%)” value in assay [7] (30 mg/kg) is 50%(30, 21); in assay [8] (30 mg/kg), 43%(30, 22).

Values taken from patent US8946478B2, “Benzamide derivative with anticancer activity and preparation method and use thereof” (Zhejiang Hisun Pharmaceutical Co., Ltd., priority 2010, dated 2015).
